Assay results reported in patent US20260193180A1, “AUTOPHAGY INDUCING COMPOUNDS AND USES THEREOF” (SAMSARA THERAPEUTICS INC., priority 2022, published 2026).

Columns and labels:
[1] = system: Human osteosarcoma U2OS cells; experiment: Acidic vesicle formation (lysosome/autolysosome staining, LysoView 633 / LysoTracker Deep Red), stimulation of autophagy; type: cell-based; conditions: 24 hours; for activation at 0.8 µM: read-out: Activity (percentage increase in acidic vesicle formation over the DMSO-treated control); for activation at 10 µM: read-out: increase in acidic vesicle formation over the DMSO-treated control
Method: Lysosomes play a fundamental role in the autophagic pathway by fusing with autophagosomes and creating ‘autolysosomes’ in order to digest their contents. Stimulation of lysosome and autolysosome formation by a compound is indicative of a stimulation of autophagy. The ability of compounds to stimulate lysosome and autolysosome formation, and thus autophagy, in live cells was assessed via fluorescent microscopy using various fluorescent stains for labelling and tracking acidic organelles (including lysosomes and autolysosomes) such as: LysoView™ 650 (70059 and 70059-T, Biotium), LysoView™633 (70058 and 70058-T, Biotium) and LysoTracker™ Deep Red (L12492, ThermoFisher Scientific). The cellular phenotype was quantitatively assessed for the induction of acidic vesicle formation and compared to a non-treated control, thus providing a measure of the ability of the compound under investigation to stimulate autophagy.
Representative procedure using LysoView™633 dye or LysoTracker™ Deep Red dye: Human osteosarcoma U2OS cells (40,000 cells/well) were seeded in a 24 well glass bottom plate (Sensoplate, Greiner Bio-One) and were incubated overnight in a humidified atmosphere at 37° C. and 5% CO2. Cells were grown in DMEM (Gibco) supplemented with 10% Fetal Bovine Serum (FBS) and 100 units/ml penicillin and 100 μg/ml streptomycin (Invitrogen). After the attachment period, cells were treated with different compounds of interest (at various concentrations in DMSO) or DMSO (non-treated control) in cell culture medium and were incubated for 24 hours. Compound-containing medium was removed and cells were incubated with pre-warmed cell culture medium containing 1× LysoView™ 633 (70058 and 70058-T, Biotium) or 50 nM LysoTracker™ Deep Red (L12492, ThermoFisher Scientific) for 45 minutes at 37° C. Finally, cell nuclei were stained for 10 minutes using Hoechst 33342 (1 μg/mL) and then the medium was replaced with fresh medium. The 24 well plate was then fitted into a heated stage on the microscope and cells maintained at 37° C. Images were captured using appropriate filter set for Cy5 and DAPI detection with the EVOS M7000 Microscope (ThermoFisher Scientific). The cellular phenotype was visually assessed for the induction of acidic vesicle formation relative to the non-treated control; multiple images were acquired and analysed using ImageJ or Cell Profiler.

[2] = Bioavailability / brain exposure in CD1 mice; type: in vivo; conditions: dose of 30 mg/kg
Method: The compounds have good properties for oral dosing and readily cross the blood brain barrier. For example, in CD1 mice, Compound 9 has a maximum concentration in brain plasma of 5067 ng/ml after 30 minutes at a dose of 30 mg/kg. Compound 12 has a maximum concentration in brain plasma of 5853 ng/ml after 8 hours at a dose of 30 mg/kg.

[3] = system: C57BL/6JRj mice injured by intra-nigral injections of alpha-synuclein and CBE; experiment: Mouse model of Parkinson's disease (intra-nigral alpha-synuclein protofibrils plus CBE); type: in vivo; conditions: 30 mg/kg per os on the first day, then 10 mg/kg per os once a day; for bar test: decrease in the mean time required to cross the bar compared to the α-syn/CBE injured group / bar test: reduction in the mean number of steps required to cross the bar compared to the α-syn/CBE injured group / bar test: reduction in the number of misplaced steps (failed strides) compared to the α-syn/CBE injured group: week 3; for decrease in the aggregation of α-syn in TH neurons (α-syn area) compared to the α-syn/CBE injured group / grid walking test: increase in the total distance travelled during the test / grid walking test: reduction in the mean number of failures per meter (number of missed steps) / increase in the number of dopaminergic TH positive neurons in the SNpc compared to the α-syn/CBE injured group: week 4
From the text: This model (run by Neuro-Sys SAS, France) uses C57BL/6JRj mice injured by intra-nigral injections of a solution containing protofibrils of alpha-synuclein (α-syn, precisely quantified by automatic Western Blot) and combined with pharmacological inhibition of GBA by conduritol B epoxide (CBE), in aged mice. The model mimics the main pathologies of PD: loss of dopaminergic neurons in the substantia nigra, neuroinflammation, deficits in motor coordination and synucleinopathy (α-syn aggregation). Any substance with positive effects in this model may be useful as a new therapeutic agent for the treatment or prevention of PD.
• Type of animal: C57BL/6JRj (Male) • Age: 18 months old • Supplier: Janvier Labs • Animal number: 10 mice per group • Acclimation and clinical signs: Animals arrived on site 7 days (one week) before the experiment to allow optimal acclimation.
Overview: CBE was administered along with the test compounds, starting on the day of the stereotaxic injections of the α-syn oligomer preparation.
Test compounds at specific concentrations (see below) were administered per os (gavage or drinking water). • Test compound treatment: The test compounds were solubilized (vehicle=water), aliquoted and stored at −20° C. Aliquots were thawed overnight at 4° C. and given once a day. Treatment started on the day of the stereotaxic injections of α-syn preparation (Day 0). Treatment was administrated until the last day of the experiment (Day 28; =day of dissection). • CBE dose and administration: 50 mg/kg, Intraperitoneal (i.p.), twice a day. • CBE treatment: Administration of CBE (vehicle=saline [NaCl 0.9%] started on the day of the stereotaxic injections of α-syn preparation (Day 0). Treatment was administrated until the last day of the experiment (Day 28; =day of dissection), • Untreated control: vehicle (saline; i.p.) administered twice a day, • Stereotaxic injections of α-syn oligomers: Human α-syn peptide (stock at 69 μM in water at −20° C.) was reconstituted at 50 μM in NaCl, 0.9% (final concentration). All mice in compound treated groups were subjected to surgery and received 2.5 μL of α-syn solution. Mice were anesthetized by isoflurane (4%, for induction), in an induction chamber coupled with a vaporizer and to an oxygen concentrator. Mice were placed on the stereotaxic frame. Anesthesia was maintained by isoflurane (2%) with a face mask coupled to the isoflurane vaporizer and oxygen concentrator machine. The skull was exposed and holes were drilled. The α-syn preparation was bilaterally injected into the SNpc, at the following coordinates: A-P, −0.3 mm; M-L, +0.12 mm; D-V, −0.45 mm. Depth of anesthesia and rectal temperature were verified every 5 minutes. After surgery, mice were allowed to recover before being placed back in the cage.
• i) Body mass • ii) Assessment of motor coordination: bar test and grid walking test • iii) Dopaminergic Tyrosine hydroxylase (TH)-positive neuron survival in the substantia nigra pars compacta (SNpc), i.e. a measure of the number of TH neurons in the SNpc • iv) α-syn area in TH positive neurons (a measure of the degree of aggregation of α-syn in TH positive neurons, in the SNpc)
• Overall: For overall evaluation and body mass, mice were observed daily, and body mass was monitored prior to drug administration. • Assessment of motor coordination: bar test.
In the third week (Week 3) post-surgery, motor coordination of the mice was assessed with the bar test. The principle of the test is based on the capacity of the mice to cross a horizontal bar connected to a platform (18 mm of diameter, 60 cm long). The test requires good coordination between front and hindlimbs, and good balance. Mice are placed at one extremity of the bar and need to reach a platform located at the other side of the bar. Motor coordination was studied after two training sessions, one and two days before the test. Three sessions were recorded by a video camera system. […]

Row | SMILES | activation at 0.8 µM [1] | activation at 10 µM [1] | maximum concentration in brain plasma [2] | time of maximum concentration in brain plasma [2] | bar test: decrease in the mean time required to cross the bar compared to the α-syn/CBE injured group [3] | bar test: reduction in the mean number of steps required to cross the bar compared to the α-syn/CBE injured group [3] | bar test: reduction in the number of misplaced steps (failed strides) compared to the α-syn/CBE injured group [3] | decrease in the aggregation of α-syn in TH neurons (α-syn area) compared to the α-syn/CBE injured group [3] | grid walking test: increase in the total distance travelled during the test [3] | grid walking test: reduction in the mean number of failures per meter (number of missed steps) [3] | increase in the number of dopaminergic TH positive neurons in the SNpc compared to the α-syn/CBE injured group [3]
1 | CCOc1ccc(Cl)cc1CN1CCN[C@@H](C)C1.Cl [Compound 9, (S)-1-(5-chloro-2-ethoxybenzyl)-3-methylpiperazine hydrochloride] | 10 to 30% | ≥ 25% | 5067 ng/mL | 30 min |  |  |  |  |  |  | 
2 | CCOc1ccc(CN2CC[C@H](CN)C2)cc1Cl.Cl [Compound 23, (R)-(1-(3-chloro-4-ethoxybenzyl)pyrrolidin-3-yl) methanamine hydrochloride] |  | ≥ 25% |  |  | 11% | 3% | 39% | 16% | 14% | 14% | 31%
3 | CCOc1ccc(CN2CC[C@@H](CN)C2)cc1Cl.Cl [Compound 30, (S)-(1-(3-chloro-4-ethoxybenzyl)pyrrolidin-3-yl)methanamine hydrochloride] | > 100% | ≥ 25% |  |  | 25% | 7% | 19% | 30% | 36% | 28% | 57%
